Consider 42 molecules from patent US8791267B2, “Biaryl PDE4 inhibitors for treating inflammatory, cardiovascular and CNS disorders” (Decode Genetics EHF, priority 2007, dated 2014).

The target in assay [1] is PDE4 (Homo sapiens, UniProt Q08499). The assay is described as follows: In-vitro assay for PDE4 enzymes, real-time enzyme-coupled spectrophotometric assay (Table 9). In kind it is biochemical.
Assay [2] addresses PDE4B (Homo sapiens, UniProt Q07343). The assay can be described thus: In-vitro assay for PDE4 enzymes, real-time enzyme-coupled spectrophotometric assay, PDE4B Activity (Table 10). In kind it is biochemical.
[3] abbreviates: human PDE4D, activity class, Table 9, read-out: hPDE4D.
Setting [4] is: human PDE4B (hPDE4B), enzyme-coupled spectrophotometric assay, read-out: PDE4B Activity, hPDE4B.

Structures can show the parent of a compound that is named as a salt. Where two headings read alike, the source gives them in different places.

PDE4, sequence (Q08499 whole entry): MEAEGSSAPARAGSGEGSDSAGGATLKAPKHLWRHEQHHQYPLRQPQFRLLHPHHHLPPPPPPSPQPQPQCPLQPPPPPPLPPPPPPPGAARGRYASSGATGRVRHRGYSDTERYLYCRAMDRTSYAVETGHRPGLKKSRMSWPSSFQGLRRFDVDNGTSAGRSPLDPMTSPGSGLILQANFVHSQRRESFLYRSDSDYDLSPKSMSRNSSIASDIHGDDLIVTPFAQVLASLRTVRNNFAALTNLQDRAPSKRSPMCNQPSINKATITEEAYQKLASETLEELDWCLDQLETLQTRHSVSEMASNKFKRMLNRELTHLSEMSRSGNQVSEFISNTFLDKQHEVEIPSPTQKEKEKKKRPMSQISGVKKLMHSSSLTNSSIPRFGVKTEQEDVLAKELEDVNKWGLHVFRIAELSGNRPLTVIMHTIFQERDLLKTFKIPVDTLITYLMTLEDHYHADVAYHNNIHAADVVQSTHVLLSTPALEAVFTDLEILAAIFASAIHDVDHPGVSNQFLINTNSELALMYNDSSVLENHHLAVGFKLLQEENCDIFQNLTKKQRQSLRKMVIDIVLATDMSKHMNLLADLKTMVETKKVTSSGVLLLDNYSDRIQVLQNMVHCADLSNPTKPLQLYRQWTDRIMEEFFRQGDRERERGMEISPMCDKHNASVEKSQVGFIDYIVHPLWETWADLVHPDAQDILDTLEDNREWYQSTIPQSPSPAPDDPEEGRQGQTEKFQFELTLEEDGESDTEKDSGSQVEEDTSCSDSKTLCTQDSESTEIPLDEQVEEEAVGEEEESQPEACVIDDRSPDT
PDE4B, sequence (Q07343 whole entry): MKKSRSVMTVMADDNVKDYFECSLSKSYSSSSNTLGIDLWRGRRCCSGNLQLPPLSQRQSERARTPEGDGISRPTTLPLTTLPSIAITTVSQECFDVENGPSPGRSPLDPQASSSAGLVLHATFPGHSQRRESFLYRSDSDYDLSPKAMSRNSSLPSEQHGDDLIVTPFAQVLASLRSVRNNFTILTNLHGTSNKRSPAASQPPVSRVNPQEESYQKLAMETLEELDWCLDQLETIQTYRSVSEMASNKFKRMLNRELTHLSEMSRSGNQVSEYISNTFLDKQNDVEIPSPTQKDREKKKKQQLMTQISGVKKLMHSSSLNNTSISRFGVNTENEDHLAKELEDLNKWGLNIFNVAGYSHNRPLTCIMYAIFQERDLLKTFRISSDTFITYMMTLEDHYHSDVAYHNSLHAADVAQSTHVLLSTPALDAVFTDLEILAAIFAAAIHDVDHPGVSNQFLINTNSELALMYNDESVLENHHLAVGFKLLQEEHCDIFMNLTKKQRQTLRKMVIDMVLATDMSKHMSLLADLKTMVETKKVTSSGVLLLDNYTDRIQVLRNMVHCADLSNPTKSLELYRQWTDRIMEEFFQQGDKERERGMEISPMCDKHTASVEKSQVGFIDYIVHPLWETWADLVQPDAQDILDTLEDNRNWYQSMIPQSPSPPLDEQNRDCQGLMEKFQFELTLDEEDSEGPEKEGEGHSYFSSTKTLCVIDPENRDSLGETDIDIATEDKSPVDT

As to `COc1ccc(Oc2ccc(F)cc2)cc1-c1cccc([N+](=O)[O-])c1` [P-193, 5-(4-Fluoro-phenoxy)-2-methoxy-3′-nitrobiphenyl], the IC50 in assay [1] (setting [3]) and in assay [2] (setting [4]) was under 5 µM in each case.

Regarding `CCN1CCN(Cc2ccc(Cc3ccc(OC)c(-c4cccc(Cl)c4)c3F)cn2)C1=O` [P-461, 1-[5-(3′-Chloro-2-fluoro-6-methoxy-biphenyl-3-ylmethyl)-pyridin-2-ylmethyl]-3-ethyl-imidazolidin-2-one hydrochloride], the IC50 in assay [1] (setting [3]) and in assay [2] (setting [4]) was under 5 µM throughout.

Consider `COc1ccc(Cc2ccc(OC)c(-c3cccc(Cl)c3)c2F)cn1` [P-225], for which the IC50 in assay [1] (setting [3]) and in assay [2] (setting [4]) was under 5 µM throughout.

Turning to `COc1ccc(Sc2ccc(NC(N)=O)cc2)cc1-c1cccc(Cl)c1` [P-540, [4-(3′-Chloro-6-methoxy-biphenyl-3-ylsulfanyl)-phenyl]-urea], the IC50 in assay [1] (setting [3]) and in assay [2] (setting [4]) was under 5 µM in each case.

Take `COc1ccc(Cc2ccc(C#N)c(F)c2)c(F)c1-c1cccc(Cl)c1` [P-274]: the IC50 in assay [1] (setting [3]) and in assay [2] (setting [4]) was under 5 µM in each case.

For `CCNC(=O)Nc1ccc(Sc2ccc(OC)c(-c3cccc(Cl)c3)c2)cc1` [P-448, 1-[4-(3′-Chloro-6-methoxy-biphenyl-3-ylsulfanyl)-phenyl]-3-ethyl urea], the IC50 in assay [1] (setting [3]) and in assay [2] (setting [4]) was under 5 µM throughout.

`COc1ccc(Cc2ccc(Cl)nc2)c(F)c1-c1cccc([N+](=O)[O-])c1` [P-152]: the IC50 in assay [1] (setting [3]) and in assay [2] (setting [4]) was under 5 µM in each case.

Turning to `COc1ccc(Cc2c(C)nn(CC(N)=O)c2C)cc1-c1cccc([N+](=O)[O-])c1` [P-101, 2-[4-(6-Methoxy-3′-nitro-biphenyl-3-ylmethyl)-3,5-dimethyl-pyrazol-1-yl]-acetamide], the IC50 in assay [1] (setting [3]) and in assay [2] (setting [4]) was under 5 µM each time.

For `COc1ccc(Cc2ccc(Br)nc2)c(F)c1-c1cccc(Cl)c1` [P-402, 2-Bromo-5-(3′-chloro-2-fluoro-6-methoxy-biphenyl-3-ylmethyl)-pyridine], the IC50 in assay [1] (setting [3]) and in assay [2] (setting [4]) was under 5 µM each time.

In the case of `COc1ccc(Cc2ccc(NC(N)=O)cc2)cc1-c1cccc(C#N)c1` [P-394, [4-(3′-Cyano-6-methoxy-biphenyl-3-ylmethyl)-phenyl]-urea], the IC50 in assay [1] (setting [3]) and in assay [2] (setting [4]) was under 5 µM each time.

On to `COc1ccc(Cc2ccc(CN)c(F)c2)c(F)c1-c1cccc(Cl)c1` [P-275], for which the figures for the IC50 in assay [1] (setting [3]) and in assay [2] (setting [4]) were under 5 µM and 5 to 20 µM, respectively.

Consider `COc1ccc(Cc2ccc(NC(N)=O)cc2)c(F)c1-c1cccc(C(C)=O)c1` [P-269, [4-(3′-Acetyl-2-fluoro-6-methoxy-biphenyl-3-ylmethyl)-phenyl]urea], for which the IC50 in assay [1] (setting [3]) and in assay [2] (setting [4]) was under 5 µM in each case.

On to `COc1ccc(C(O)c2ccc(F)cc2)cc1-c1cccc(-c2nnco2)c1` (stereo not drawn) [P-117, (4-Fluoro-phenyl)-(6-methoxy-3′-[1,3,4]oxadiazol-2-yl-biphenyl-3-yl)-methanol], for which the results for the IC50 in assay [1] (setting [3]) and in assay [2] (setting [4]) were under 5 µM and 21 to 40 µM, respectively.

Turning to `COc1ccc(Cc2csc(N)n2)c(F)c1-c1cccc(Cl)c1` [P-341, 4-(3′-Chloro-2-fluoro-6-methoxy-biphenyl-3-ylmethyl)-thiazol-2-ylamine], the IC50 in assay [1] (setting [3]) and in assay [2] (setting [4]) was under 5 µM throughout.

For `COc1ccc(Cc2ccc(F)cc2)cc1-c1ccc2nonc2c1` [P-004, 5-[5-(4-Fluoro-benzyl)-2-methoxy-phenyl]-benzo[1,2,5]oxadiazole], the IC50 in assay [1] (setting [3]) is under 5 µM; in assay [2] (setting [4]), 5 to 20 µM.

`COc1ccc(Cn2cnnc2)cc1-c1cccc([N+](=O)[O-])c1` [P-066, 4-(6-Methoxy-3′-nitro-biphenyl-3-ylmethyl)-4H-[1,2,4]triazole]: the IC50 in assay [1] (setting [3]) and in assay [2] (setting [4]) was under 5 µM throughout.

Regarding `COc1ccc(Cn2cc(C(N)=O)ccc2=O)cc1-c1cccc([N+](=O)[O-])c1` [P-212, 1-(6-Methoxy-3′-nitro-biphenyl-3-ylmethyl)-6-oxo-1,6-dihydro-pyridine-3-carboxylic acid amide], the IC50 in assay [1] (setting [3]) and in assay [2] (setting [4]) was 5 to 20 µM in each case.

As for `COc1ccc(Cc2ccc(NC(C)=O)cc2)c(F)c1-c1cccc([N+](=O)[O-])c1` [P-107], the IC50 in assay [1] (setting [3]) and in assay [2] (setting [4]) was under 5 µM in each case.

For `[2H]C(O)(c1ccc(NC(N)=O)cc1)c1ccc(OC)c(-c2cccc(Cl)c2)c1F` (stereo not drawn) [P-539, {4-[(3′-chloro-2-fluoro-6-methoxy-biphenyl-3-yl)-hydroxy-deutero-methyl]-phenyl}-urea], the figures for the IC50 in assay [1] (setting [3]) and in assay [2] (setting [4]) were under 5 µM and 21 to 40 µM, respectively.

For `COc1ccc(Cc2cccnc2Cl)c(O)c1-c1cccc([N+](=O)[O-])c1` [P-109], the IC50 in assay [1] (setting [3]) and in assay [2] (setting [4]) was under 5 µM each time.

On to `COc1ccc(Cc2ccc(N(C)C(N)=O)cc2)c(F)c1-c1cccc(C(C)=O)c1` [P-338, 1-[4-(3′-Acetyl-2-fluoro-6-methoxy-biphenyl-3-ylmethyl)-phenyl]-1-methyl-urea], for which the IC50 in assay [1] (setting [3]) and in assay [2] (setting [4]) was under 5 µM each time.

Turning to `CCNC(=O)NCc1ccc(Cc2ccc(OC)c(-c3cccc(Cl)c3)c2)cn1` [P-597, 1-[5-(3′-chloro-6-methoxy-biphenyl-3-ylmethyl)-pyridin-2-ylmethyl]-3-ethyl-urea hydrochloride], the IC50 in assay [1] (setting [3]) and in assay [2] (setting [4]) was under 5 µM in each case.

As to `CCNC(=O)Nc1ccc(Cc2ccc(OC)c(-c3cccc(Cl)c3)n2)cn1` [P-386, 1-{5-[6-(3-chloro-phenyl)-5-methoxy-pyridin-2-ylmethyl]-pyridin-2-yl}-3-ethyl-urea hydrochloride], the IC50 in assay [1] (setting [3]) and in assay [2] (setting [4]) was under 5 µM each time.

Consider `COc1ccc(CC2CCCS2)c(F)c1-c1cccc([N+](=O)[O-])c1` (stereo not drawn) [P-127], for which the IC50 in assay [1] (setting [3]) and in assay [2] (setting [4]) was under 5 µM each time.

Take `COc1ccc(Cc2ccc3nc(C(N)=O)cn3c2)c(F)c1-c1cccc(Cl)c1` [P-429, 6-(3′-chloro-2-fluoro-6-methoxy-biphenyl-3-ylmethyl)-imidazo[1,2-a]pyridine-2-carboxylic acid amide]: the IC50 in assay [1] (setting [3]) and in assay [2] (setting [4]) was under 5 µM throughout.

As to `COc1ccc(Oc2ccc(NS(C)(=O)=O)cc2)c(F)c1-c1cccc(Cl)c1` [P-254, N-[4-(3′-Chloro-2-fluoro-6-methoxy-biphenyl-3-yloxy)-phenyl]-methanesulfonamide], the values for the IC50 in assay [1] (setting [3]) and in assay [2] (setting [4]) were 5 to 20 µM and under 5 µM, respectively.

As for `COc1ccc(COC(C)C)nc1-c1cccc([N+](=O)[O-])c1` [P-030, 6-isopropoxymethyl-3-methoxy-2-(3-nitro-phenyl)-pyridine], the IC50 was 5 to 20 µM in assay [1] (setting [3]) and 21 to 40 µM in assay [2] (setting [4]).

For `COc1ccc(C(=O)c2ccc(F)cc2)c(F)c1-c1cccc([N+](=O)[O-])c1` [P-049], the IC50 in assay [1] (setting [3]) and in assay [2] (setting [4]) was under 5 µM in each case.

As to `O=[N+]([O-])c1cccc(-c2c(O)ccc(Cc3ccc(F)cc3)c2F)c1` [P-451], the IC50 in assay [1] (setting [3]) and in assay [2] (setting [4]) was under 5 µM each time.

On to `COc1ccc(Cc2ccc(NC(=O)CCN)cc2)cc1-c1cccc([N+](=O)[O-])c1` [P-159], for which the IC50 in assay [1] (setting [3]) and in assay [2] (setting [4]) was under 5 µM throughout.

On to `COc1ccc(Cc2ccc(C(C)(C)O)nc2)c(F)c1-c1cccc(Cl)c1` [P-587, 2-[5-(3′-Chloro-2-fluoro-6-methoxy-biphenyl-3-ylmethyl)-pyridin-2-yl]-propan-2-ol hydrochloride], for which the IC50 in assay [1] (setting [3]) and in assay [2] (setting [4]) was under 5 µM throughout.

For the molecule `COc1ccc(Cc2ccc(F)cc2)c(N)c1-c1cccc([N+](=O)[O-])c1` [P-176, 3-(4-fluoro-benzyl)-6-methoxy-3′-nitro-biphenyl-2-ylamine], the IC50 in assay [1] (setting [3]) and in assay [2] (setting [4]) was under 5 µM in each case.

Take `COc1ccc(Cn2cncn2)cc1-c1ccc2c(c1)OCO2` [P-044, 1-(3-Benzo[1,3]dioxol-5-yl-4-methoxy-benzyl)-1H-[1,2,4]triazole]: the IC50 in assay [1] (setting [3]) and in assay [2] (setting [4]) was under 5 µM in each case.

On to `COc1ccc(Cc2cccc(OC(N)=O)c2)c(F)c1-c1cccc(Cl)c1` [P-222], for which the IC50 in assay [1] and in assay [2] was under 5 µM in each case.

For the molecule `COc1ccc(Cc2ccc(N)cc2)c(F)c1-c1cccc([N+](=O)[O-])c1` [P-136], the IC50 in assay [1] (setting [3]) and in assay [2] (setting [4]) was under 5 µM each time.

On to `COc1ccc(Cc2cnc(O[C@@H]3CCN(C)C3)nc2)c(F)c1-c1cccc(Cl)c1` [P-406, 5-(3′-Chloro-2-fluoro-6-methoxy-biphenyl-3-ylmethyl)-2-((R)-1-methyl-pyrrolidin-3-yloxy)-pyrimidine], for which the IC50 in assay [1] (setting [3]) and in assay [2] (setting [4]) was under 5 µM in each case.

As to `COc1ccc(Cc2ccc(F)cc2)cc1-c1cccc(C(C)=O)c1` [P-140, 1-[5′-(4-Fluoro-benzyl)-2′-methoxy-biphenyl-3-yl]-ethanone], the IC50 in assay [1] (setting [3]) and in assay [2] (setting [4]) was under 5 µM each time.

Regarding `Cn1nccc1Cc1ccc(OC(F)F)c(-c2ccc3c(c2)OCO3)c1` [P-201, 5-(3-Benzo[1,3]dioxol-5-yl-4-difluoromethoxy-benzyl)-1-methyl-1H-pyrazole], the IC50 was 5 to 20 µM in assay [1] (setting [3]) and 21 to 40 µM in assay [2] (setting [4]).

For the molecule `COc1ccc(Cc2ccnc(CN)c2)c(F)c1-c1cccc(Cl)c1` [P-437, C-[4-(3′-Chloro-2-fluoro-6-methoxy-biphenyl-3-ylmethyl)-pyridin-2-yl]-methylamine], the IC50 in assay [1] (setting [3]) and in assay [2] (setting [4]) was under 5 µM throughout.

Regarding `CCNC(=O)Nc1ccc(Cc2ccc(OC)c(-c3cccc(Cl)c3)c2F)c[n+]1[O-]` [P-397, 1-[5-(3′-Chloro-2-fluoro-6-methoxy-biphenyl-3-ylmethyl)-1-oxy-pyridin-2-yl]-3-ethyl-urea], the IC50 in assay [1] (setting [3]) and in assay [2] (setting [4]) was under 5 µM in each case.

Consider `COc1ccc(Cn2ccnc2-c2cccs2)c(F)c1-c1cccc(Cl)c1` [P-559, 1-(3′-Chloro-2-fluoro-6-methoxy-biphenyl-3-ylmethyl)-2-thiophen-2-yl-1H-imidazole hydrochloride salt], for which the IC50 in assay [1] (setting [3]) and in assay [2] (setting [4]) was under 5 µM each time.

For `COc1ccc(Cc2ccc(CN)c(O)c2)c(F)c1-c1cccc(Cl)c1` [P-296], the values for the IC50 in assay [1] (setting [3]) and in assay [2] (setting [4]) were under 5 µM and 21 to 40 µM, respectively.
